Values belong to the compound of their own block, whether it stands above or below them.
What was measured:
[1] = molecular target: T1, Serine/threonine-protein kinase Nek11 (Homo sapiens) (UniProt Q8NG66); test: Inhibition of human recombinant NEK11 at 500 nM in presence of ATP by radiometric assay relative to control
T1 sequence (whole entry): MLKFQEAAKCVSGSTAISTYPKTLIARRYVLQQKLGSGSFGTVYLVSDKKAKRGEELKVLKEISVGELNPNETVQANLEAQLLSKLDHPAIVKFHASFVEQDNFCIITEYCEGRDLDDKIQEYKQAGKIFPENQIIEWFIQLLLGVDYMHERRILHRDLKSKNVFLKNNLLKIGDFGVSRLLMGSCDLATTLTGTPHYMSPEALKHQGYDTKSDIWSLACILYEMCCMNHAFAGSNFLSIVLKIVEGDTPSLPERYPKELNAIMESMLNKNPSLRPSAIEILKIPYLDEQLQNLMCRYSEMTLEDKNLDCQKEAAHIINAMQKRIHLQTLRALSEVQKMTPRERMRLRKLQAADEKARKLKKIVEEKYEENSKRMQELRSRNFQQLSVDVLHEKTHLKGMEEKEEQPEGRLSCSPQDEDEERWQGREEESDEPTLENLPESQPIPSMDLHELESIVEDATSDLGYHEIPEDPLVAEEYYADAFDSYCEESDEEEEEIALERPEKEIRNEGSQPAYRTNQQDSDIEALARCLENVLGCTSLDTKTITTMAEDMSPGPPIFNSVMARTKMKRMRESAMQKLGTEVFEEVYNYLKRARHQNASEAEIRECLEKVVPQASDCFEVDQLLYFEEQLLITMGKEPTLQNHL

[2] = molecular target: Proto-oncogene tyrosine-protein kinase Src (Homo sapiens) (UniProt P12931); test: Inhibition of human recombinant SRC at 500 nM in presence of ATP by radiometric assay relative to control
Proto-oncogene tyrosine-protein kinase Src (Homo sapiens), sequence (P12931 2-536 limits assumed): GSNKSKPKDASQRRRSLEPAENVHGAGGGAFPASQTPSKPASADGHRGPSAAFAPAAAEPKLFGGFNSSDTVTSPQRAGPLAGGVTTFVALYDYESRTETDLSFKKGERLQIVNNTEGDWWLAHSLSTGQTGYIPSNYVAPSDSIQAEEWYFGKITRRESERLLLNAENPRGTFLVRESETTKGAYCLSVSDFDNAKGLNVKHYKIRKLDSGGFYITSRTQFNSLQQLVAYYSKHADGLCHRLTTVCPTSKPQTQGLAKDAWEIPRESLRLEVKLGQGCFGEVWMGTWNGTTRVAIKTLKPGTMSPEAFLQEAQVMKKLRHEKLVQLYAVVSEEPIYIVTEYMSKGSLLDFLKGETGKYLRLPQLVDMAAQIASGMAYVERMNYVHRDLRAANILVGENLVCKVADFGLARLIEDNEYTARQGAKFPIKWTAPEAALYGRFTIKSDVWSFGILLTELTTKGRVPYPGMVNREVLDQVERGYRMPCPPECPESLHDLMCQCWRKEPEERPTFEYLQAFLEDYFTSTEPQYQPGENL

[3] = molecular target: T2, Ephrin type-B receptor 3 (Homo sapiens) (UniProt P54753); test: Inhibition of human recombinant EphB3 at 500 nM in presence of ATP by radiometric assay relative to control
T2 sequence (whole entry): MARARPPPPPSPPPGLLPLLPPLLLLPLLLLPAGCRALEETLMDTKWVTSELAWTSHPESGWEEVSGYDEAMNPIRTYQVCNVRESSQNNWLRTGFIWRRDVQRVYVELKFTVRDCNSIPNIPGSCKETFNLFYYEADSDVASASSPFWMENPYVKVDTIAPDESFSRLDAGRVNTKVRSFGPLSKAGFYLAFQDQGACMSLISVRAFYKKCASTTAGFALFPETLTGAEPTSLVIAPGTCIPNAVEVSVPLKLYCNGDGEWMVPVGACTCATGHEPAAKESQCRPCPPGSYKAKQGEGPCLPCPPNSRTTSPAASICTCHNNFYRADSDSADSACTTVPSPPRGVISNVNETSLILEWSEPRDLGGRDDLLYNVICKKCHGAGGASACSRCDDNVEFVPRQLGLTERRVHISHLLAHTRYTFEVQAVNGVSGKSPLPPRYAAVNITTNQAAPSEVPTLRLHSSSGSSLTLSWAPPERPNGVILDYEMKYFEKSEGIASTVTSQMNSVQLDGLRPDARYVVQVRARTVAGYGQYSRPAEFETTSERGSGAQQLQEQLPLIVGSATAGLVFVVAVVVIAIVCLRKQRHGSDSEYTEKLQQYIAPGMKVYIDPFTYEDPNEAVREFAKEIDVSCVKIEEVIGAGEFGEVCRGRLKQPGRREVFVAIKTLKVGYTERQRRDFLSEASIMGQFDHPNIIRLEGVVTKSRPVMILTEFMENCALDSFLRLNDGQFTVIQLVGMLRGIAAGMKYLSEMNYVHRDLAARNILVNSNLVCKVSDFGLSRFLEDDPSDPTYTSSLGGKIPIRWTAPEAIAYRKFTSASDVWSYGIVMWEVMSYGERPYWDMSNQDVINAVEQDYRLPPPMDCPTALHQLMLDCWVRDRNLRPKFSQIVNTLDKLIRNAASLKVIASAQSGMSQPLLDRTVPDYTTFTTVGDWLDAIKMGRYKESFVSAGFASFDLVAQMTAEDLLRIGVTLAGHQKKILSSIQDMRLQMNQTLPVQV

[4] = molecular target: G protein-coupled receptor kinase 5 (Homo sapiens) (UniProt P34947); test: Inhibition of human recombinant GPRK5 at 500 nM in presence of ATP by radiometric assay relative to control
G protein-coupled receptor kinase 5 (Homo sapiens), sequence (P34947 whole entry, looked up): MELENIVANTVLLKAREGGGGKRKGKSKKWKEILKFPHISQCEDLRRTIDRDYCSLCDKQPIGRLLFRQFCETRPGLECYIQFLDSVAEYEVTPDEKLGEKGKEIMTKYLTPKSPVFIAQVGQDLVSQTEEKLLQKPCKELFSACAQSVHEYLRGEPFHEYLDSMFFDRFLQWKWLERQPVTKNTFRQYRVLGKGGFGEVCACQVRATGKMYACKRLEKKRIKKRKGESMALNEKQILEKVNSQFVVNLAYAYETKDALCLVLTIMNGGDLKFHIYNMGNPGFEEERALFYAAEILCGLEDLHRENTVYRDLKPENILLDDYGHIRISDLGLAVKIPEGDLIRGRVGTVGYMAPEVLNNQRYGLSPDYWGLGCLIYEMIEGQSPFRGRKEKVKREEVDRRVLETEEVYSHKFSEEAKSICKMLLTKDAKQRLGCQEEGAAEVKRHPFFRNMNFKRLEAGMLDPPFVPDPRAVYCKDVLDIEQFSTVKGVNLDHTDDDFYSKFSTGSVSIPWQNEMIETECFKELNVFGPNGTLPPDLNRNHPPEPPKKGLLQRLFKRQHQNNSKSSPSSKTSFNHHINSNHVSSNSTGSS

[5] = molecular target: Tyrosine-protein kinase Fyn (Homo sapiens) (UniProt P06241); test: Inhibition of human recombinant FYN at 40 nM related to control ULK1
Tyrosine-protein kinase Fyn (Homo sapiens), sequence (P06241 2-537 limits assumed): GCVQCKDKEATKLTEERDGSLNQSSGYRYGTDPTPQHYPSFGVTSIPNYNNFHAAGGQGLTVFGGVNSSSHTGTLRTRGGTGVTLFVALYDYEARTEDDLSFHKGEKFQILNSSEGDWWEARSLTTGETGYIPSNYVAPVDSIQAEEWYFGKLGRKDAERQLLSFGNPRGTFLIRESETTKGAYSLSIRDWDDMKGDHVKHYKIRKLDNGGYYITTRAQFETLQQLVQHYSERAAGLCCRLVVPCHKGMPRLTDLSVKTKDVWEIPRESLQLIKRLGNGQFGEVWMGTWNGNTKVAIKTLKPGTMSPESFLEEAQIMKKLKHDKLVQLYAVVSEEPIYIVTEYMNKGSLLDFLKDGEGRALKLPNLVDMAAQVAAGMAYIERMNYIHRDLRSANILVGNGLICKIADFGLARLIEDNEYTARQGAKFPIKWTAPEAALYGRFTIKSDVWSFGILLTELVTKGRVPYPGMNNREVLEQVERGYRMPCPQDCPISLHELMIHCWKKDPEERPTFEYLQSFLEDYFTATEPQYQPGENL

[6] = molecular target: T3, Tyrosine-protein kinase ZAP-70 (Homo sapiens) (UniProt P43403); test: Inhibition of human recombinant ZAP70 at 40 nM related to control ULK1
T3 sequence (whole entry): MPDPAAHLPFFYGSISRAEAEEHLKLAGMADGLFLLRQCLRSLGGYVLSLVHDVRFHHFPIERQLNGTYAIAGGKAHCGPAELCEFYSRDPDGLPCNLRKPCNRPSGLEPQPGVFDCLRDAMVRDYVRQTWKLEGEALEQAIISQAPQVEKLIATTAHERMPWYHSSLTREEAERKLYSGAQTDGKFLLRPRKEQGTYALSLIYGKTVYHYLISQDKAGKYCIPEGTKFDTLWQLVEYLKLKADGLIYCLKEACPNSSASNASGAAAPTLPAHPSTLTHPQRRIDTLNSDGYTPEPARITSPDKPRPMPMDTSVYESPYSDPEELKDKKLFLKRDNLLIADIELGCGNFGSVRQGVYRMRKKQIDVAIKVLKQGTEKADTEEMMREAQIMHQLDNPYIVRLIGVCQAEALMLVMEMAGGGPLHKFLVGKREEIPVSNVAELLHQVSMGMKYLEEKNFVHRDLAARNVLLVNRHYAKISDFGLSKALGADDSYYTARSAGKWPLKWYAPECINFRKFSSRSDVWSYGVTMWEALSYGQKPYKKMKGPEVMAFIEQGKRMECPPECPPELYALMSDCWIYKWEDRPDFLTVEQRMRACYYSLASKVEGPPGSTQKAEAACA

[7] = molecular target: Mast/stem cell growth factor receptor Kit (Homo sapiens) (UniProt P10721); test: Inhibition of human recombinant KIT at 40 nM in presence of ATP by radiometric assay relative to control
Mast/stem cell growth factor receptor Kit (Homo sapiens), sequence (P10721 whole entry): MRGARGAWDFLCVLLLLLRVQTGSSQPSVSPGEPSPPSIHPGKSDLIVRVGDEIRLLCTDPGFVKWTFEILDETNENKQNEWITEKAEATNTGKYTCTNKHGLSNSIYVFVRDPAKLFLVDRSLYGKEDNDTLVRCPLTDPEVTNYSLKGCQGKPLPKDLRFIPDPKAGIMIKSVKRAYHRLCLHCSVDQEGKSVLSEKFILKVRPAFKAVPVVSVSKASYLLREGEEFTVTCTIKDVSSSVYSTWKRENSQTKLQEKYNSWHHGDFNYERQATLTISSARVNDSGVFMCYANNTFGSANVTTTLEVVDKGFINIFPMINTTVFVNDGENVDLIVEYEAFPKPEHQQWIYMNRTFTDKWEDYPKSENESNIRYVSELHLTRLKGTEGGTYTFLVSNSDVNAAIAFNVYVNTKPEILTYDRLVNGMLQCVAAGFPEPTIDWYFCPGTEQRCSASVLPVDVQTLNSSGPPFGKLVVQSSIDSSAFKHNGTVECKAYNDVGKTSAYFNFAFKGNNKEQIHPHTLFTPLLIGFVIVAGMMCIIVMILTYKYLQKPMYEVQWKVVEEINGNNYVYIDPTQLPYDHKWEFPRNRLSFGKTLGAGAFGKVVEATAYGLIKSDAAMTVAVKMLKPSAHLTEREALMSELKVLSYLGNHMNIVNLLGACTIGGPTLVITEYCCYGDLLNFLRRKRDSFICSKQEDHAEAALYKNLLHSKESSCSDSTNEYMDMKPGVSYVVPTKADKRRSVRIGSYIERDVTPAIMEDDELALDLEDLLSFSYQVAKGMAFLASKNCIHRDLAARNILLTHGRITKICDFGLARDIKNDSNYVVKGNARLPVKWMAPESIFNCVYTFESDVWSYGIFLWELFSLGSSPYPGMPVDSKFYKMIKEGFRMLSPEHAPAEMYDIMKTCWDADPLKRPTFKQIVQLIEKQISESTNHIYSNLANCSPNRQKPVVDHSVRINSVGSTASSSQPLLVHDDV

U2OS = test: cells; conditions: Homo sapiens
Description: Inhibition of autophagy in human U2OS cells assessed as BafA1-induced LC3B-II accumulation preincubated with compound for 3 hrs and followed by BafA1 induction and measured after 1.5 hrs by immunoblotting analysis

[8] = molecular target: eIF-2-alpha kinase GCN2 (Homo sapiens) (UniProt Q9P2K8); test: Inhibition of human recombinant GCN2 at 15 nM in presence of ATP by radiometric assay relative to control
eIF-2-alpha kinase GCN2 (Homo sapiens), sequence (Q9P2K8 whole entry): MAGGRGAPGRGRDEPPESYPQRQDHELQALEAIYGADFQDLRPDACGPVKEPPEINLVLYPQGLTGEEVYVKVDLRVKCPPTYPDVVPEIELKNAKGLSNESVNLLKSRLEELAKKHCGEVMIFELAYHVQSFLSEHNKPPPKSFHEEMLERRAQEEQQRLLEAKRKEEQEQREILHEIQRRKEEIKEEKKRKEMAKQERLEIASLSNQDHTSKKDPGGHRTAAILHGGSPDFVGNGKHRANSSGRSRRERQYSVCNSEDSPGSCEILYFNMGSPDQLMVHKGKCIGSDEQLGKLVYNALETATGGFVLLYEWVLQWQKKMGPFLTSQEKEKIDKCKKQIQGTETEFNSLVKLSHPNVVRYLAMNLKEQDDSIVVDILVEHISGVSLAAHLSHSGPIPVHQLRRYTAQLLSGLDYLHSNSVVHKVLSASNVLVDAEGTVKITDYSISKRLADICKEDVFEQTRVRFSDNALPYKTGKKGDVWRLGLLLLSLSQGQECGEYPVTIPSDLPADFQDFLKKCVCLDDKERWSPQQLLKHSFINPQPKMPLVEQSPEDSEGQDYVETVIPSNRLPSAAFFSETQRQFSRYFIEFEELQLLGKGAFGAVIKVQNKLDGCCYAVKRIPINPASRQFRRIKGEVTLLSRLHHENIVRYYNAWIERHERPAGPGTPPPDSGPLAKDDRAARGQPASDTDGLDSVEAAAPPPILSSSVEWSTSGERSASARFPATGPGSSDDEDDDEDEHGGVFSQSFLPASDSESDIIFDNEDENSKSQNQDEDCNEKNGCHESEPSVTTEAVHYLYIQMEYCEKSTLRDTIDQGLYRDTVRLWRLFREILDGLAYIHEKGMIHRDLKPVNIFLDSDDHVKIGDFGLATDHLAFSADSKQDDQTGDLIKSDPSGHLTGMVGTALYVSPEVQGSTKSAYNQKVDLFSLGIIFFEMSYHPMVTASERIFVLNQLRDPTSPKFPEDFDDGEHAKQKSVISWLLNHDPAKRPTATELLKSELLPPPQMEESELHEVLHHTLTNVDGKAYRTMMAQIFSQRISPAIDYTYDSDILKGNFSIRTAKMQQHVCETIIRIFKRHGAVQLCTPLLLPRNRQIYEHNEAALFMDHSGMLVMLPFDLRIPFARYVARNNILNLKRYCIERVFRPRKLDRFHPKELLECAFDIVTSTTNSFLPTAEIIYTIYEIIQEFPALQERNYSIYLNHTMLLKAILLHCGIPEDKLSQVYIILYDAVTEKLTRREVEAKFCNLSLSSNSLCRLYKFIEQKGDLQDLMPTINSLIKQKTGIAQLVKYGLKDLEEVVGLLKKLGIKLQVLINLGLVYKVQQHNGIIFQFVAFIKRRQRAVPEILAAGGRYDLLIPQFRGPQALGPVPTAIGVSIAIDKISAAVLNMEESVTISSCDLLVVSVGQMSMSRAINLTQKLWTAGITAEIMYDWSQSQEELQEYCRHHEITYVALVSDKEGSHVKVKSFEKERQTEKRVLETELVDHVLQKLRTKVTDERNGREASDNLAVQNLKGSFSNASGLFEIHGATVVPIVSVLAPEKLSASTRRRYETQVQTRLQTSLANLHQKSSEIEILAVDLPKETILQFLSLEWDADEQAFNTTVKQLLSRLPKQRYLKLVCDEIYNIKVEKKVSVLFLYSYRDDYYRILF

inhibition [1]: 8%
inhibition [2]: 19%
inhibition [3]: 0%
inhibition [4]: 1%
SMILES: CNC(=O)c1ccccc1Oc1nc(Nc2cc(OC)c(OC)c(OC)c2)ncc1Br

fold change (FC) [5]: 0
fold change (FC) [6]: 0
inhibition [7]: 0%
EC50 (U2OS): 700 nM
SMILES: O=C(N[C@@H](C1CC1)C(F)(F)F)c1cc(-c2cnn3cc(-c4ccc(F)cc4)cnc23)cs1

inhibition [8]: 8%
SMILES: CC(C)[C@H](NC(=O)c1cc(-c2cnn3cc(-c4ccc(OCCN5CCCCC5)cc4)cnc23)cs1)C(F)(F)F
